Measured values taken from PubChem BioAssay (NCI).
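48-hour exposure; five concentrations; linearly interpolated endpoints. The concentration for 50% growth inhibition is given as GI50. TGI: total growth inhibition.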

Legend:
Assay in all cases: NCI-60 cell line screen, 48 h
[1] = test system: HCC-2998 colon
[2] = test system: HCT-116 colon
[3] = test system: KM12 colon
[4] = test system: LOX IMVI melanoma
[5] = test system: M14 melanoma
[6] = test system: NCI-H226 lung
[7] = test system: OVCAR-4 ovarian
[8] = test system: SF-295 CNS
[9] = test system: SN12C renal
[10] = test system: SNB-19 CNS
[11] = test system: SNB-75 CNS
[12] = test system: SR leukemia
[13] = test system: UACC-62 melanoma
[14] = test system: HOP-92 NSCLC
[15] = test system: SK-MEL-28 melanoma
[16] = test system: HS 578T breast
[17] = test system: NCI/ADR-RES ovarian
[18] = test system: PC-3 prostate

For `COc1ccc(OC)c(NC(=O)C(=O)CC(=O)c2sc(-n3nc(-c4ccccc4)cc3-c3ccccc3)nc2C)c1`, the TGI [1] was greater than 100 µM, the TGI [2] was greater than 100 µM and the TGI [3] was greater than 100 µM. For the same compound, the TGI [4] was greater than 100 µM, the TGI [5] was greater than 100 µM and the TGI [6] was greater than 100 µM. For the same compound, the TGI [7] was greater than 100 µM, the TGI [8] was greater than 100 µM and the TGI [9] was greater than 100 µM. It also gave a TGI [10] greater than 100 µM, a TGI [11] greater than 100 µM and a TGI [12] greater than 100 µM. The TGI [13] was greater than 100 µM.
For `COc1ccc(OC)c(/C=C2\CCc3ccccc3C2=O)c1`, the TGI [1] was 9.35 µM, the TGI [2] was 20.6 µM and the TGI [14] was 9.32 µM. For the same compound, the TGI [3] was 12.5 µM, the TGI [4] was 20.1 µM and the TGI [5] was 16.3 µM. The TGI [6] was 18.6 µM, the TGI [7] was 22.9 µM and the TGI [8] was 12.4 µM. It also gave a TGI [15] of 28.1 µM, a TGI [9] of 25.5 µM and a TGI [10] of 28.9 µM. It also gave a TGI [11] of 3.52 µM and a TGI [13] of 5.39 µM.
Compound `C=CCCCN1CCCC(C)C1=S` (stereo unspecified) has a TGI [1] greater than 100 µM, a TGI [2] greater than 100 µM and a TGI [14] greater than 100 µM. The TGI [3] was greater than 100 µM, the TGI [4] was greater than 100 µM and the TGI [5] was greater than 100 µM. The TGI [6] was greater than 100 µM, the TGI [7] was greater than 100 µM and the TGI [8] was greater than 100 µM. The TGI [15] was greater than 100 µM, the TGI [10] was greater than 100 µM and the TGI [11] was greater than 100 µM. For the same compound, the TGI [12] was greater than 100 µM and the TGI [13] was greater than 100 µM.
`O=C(CC1C(=O)Nc2ccccc2S1(=O)=O)Nc1ccc(Cl)cc1` (stereo unspecified) gave a TGI [1] of 39.6 µM, a TGI [2] greater than 100 µM and a TGI [14] of 44.5 µM. It also gave a TGI [4] of 41.8 µM, a TGI [5] greater than 100 µM and a TGI [6] greater than 100 µM. It also gave a TGI [7] of 77.2 µM, a TGI [8] greater than 100 µM and a TGI [15] of 74.5 µM. For the same compound, the TGI [9] was greater than 100 µM, the TGI [10] was 57.1 µM and the TGI [11] was 37.6 µM. The TGI [12] was 30.1 µM and the TGI [13] was greater than 100 µM.
Work on `C(=C\C(Sc1ccccc1)c1ccccc1)/NNC1=NC(c2ccccc2)C(c2ccccc2)=NN1` (stereo unspecified) yielded a TGI [1] greater than 100 µM, a TGI [2] greater than 100 µM and a TGI [14] of 80.7 µM. It also gave a TGI [3] greater than 100 µM, a TGI [4] greater than 100 µM and a TGI [5] greater than 100 µM. It also gave a TGI [6] greater than 100 µM, a TGI [7] greater than 100 µM and a TGI [8] greater than 100 µM. The TGI [15] was greater than 100 µM, the TGI [9] was greater than 100 µM and the TGI [10] was greater than 100 µM. It also gave a TGI [11] greater than 100 µM, a TGI [12] of 77.7 µM and a TGI [13] greater than 100 µM.
For `COc1ccc(CNc2nc(NCc3ccc(OC)cc3)nc(NC3CCCC3)n2)cc1`, the GI50 [1] was 3.67 µM, the TGI [1] was 38.6 µM and the TGI [2] was 10.1 µM. The TGI [14] was greater than 100 µM, the TGI [16] was greater than 21.3 µM and the TGI [3] was 1.59 µM. It also gave a TGI [4] of 76.9 µM, a TGI [5] greater than 100 µM and a TGI [6] greater than 55.8 µM. For the same compound, the TGI [17] was 13.4 µM, the TGI [7] was greater than 100 µM and the TGI [18] was greater than 100 µM. It also gave a TGI [8] greater than 31.5 µM, a TGI [15] greater than 100 µM and a TGI [9] greater than 100 µM. It also gave a TGI [10] greater than 100 µM, a TGI [11] greater than 100 µM and a TGI [12] greater than 100 µM. The TGI [13] was greater than 59.6 µM.
For `COc1c(I)c(OC)c2c(c1I)O[C@@H]1OCC[C@H]21`, the TGI [1] was 78.6 µM, the TGI [2] was greater than 100 µM and the TGI [14] was 67.1 µM. It also gave a TGI [3] of 82.6 µM, a TGI [4] greater than 100 µM and a TGI [5] of 50.5 µM. For the same compound, the TGI [6] was greater than 100 µM, the TGI [7] was 84.6 µM and the TGI [8] was greater than 100 µM. The TGI [15] was 97 µM, the TGI [9] was greater than 100 µM and the TGI [10] was greater than 100 µM. It also gave a TGI [11] of 82.9 µM, a TGI [12] of 45.2 µM and a TGI [13] greater than 100 µM.
With `COC(=O)CC(C(C(=O)OC)C(=O)OC)N1C(=O)OC(c2ccccc2)C1c1ccccc1` (stereo unspecified) the TGI [1] was 93.1 µM, the TGI [2] was greater than 100 µM and the TGI [14] was greater than 100 µM. The TGI [3] was greater than 100 µM, the TGI [4] was greater than 100 µM and the TGI [5] was greater than 100 µM. It also gave a TGI [6] greater than 100 µM, a TGI [7] greater than 100 µM and a TGI [8] greater than 100 µM. The TGI [15] was greater than 100 µM, the TGI [9] was greater than 100 µM and the TGI [10] was greater than 100 µM. The TGI [11] was greater than 100 µM and the TGI [13] was greater than 100 µM.
`CC1(C)c2ccccc2N2O[C@@H]3C(=O)N(c4ccccc4)C(=O)[C@@H]3C21c1ccccc1` (stereo partly specified) gave a TGI [1] greater than 100 µM, a TGI [3] greater than 100 µM and a TGI [4] greater than 100 µM. For the same compound, the TGI [5] was greater than 100 µM, the TGI [6] was greater than 100 µM and the TGI [8] was greater than 100 µM. It also gave a TGI [15] greater than 100 µM, a TGI [9] greater than 100 µM and a TGI [10] greater than 100 µM. It also gave a TGI [11] greater than 100 µM and a TGI [13] greater than 100 µM.
`CC(=O)c1ccccc1NC(=O)C(=O)C(C(=O)c1ccccc1-c1ccccc1)C1OC(=O)c2ccccc21` (stereo unspecified) showed a TGI [1] of 30.9 µM, a TGI [2] of 32.5 µM and a TGI [3] of 34.3 µM. For the same compound, the TGI [4] was 37.7 µM, the TGI [5] was 35.4 µM and the TGI [6] was 36.2 µM. For the same compound, the TGI [7] was greater than 100 µM, the TGI [8] was 52.4 µM and the TGI [9] was 43.5 µM. It also gave a TGI [10] of 58.9 µM, a TGI [11] of 51.7 µM and a TGI [12] of 88.9 µM. It also gave a TGI [13] of 38.8 µM.
`CC(=O)NNc1nc(C)c(C(=O)NNC(=O)C(=O)Nc2c([N+](=O)[O-])ccc(C)c2C)s1` was tested, and the TGI [1] was greater than 100 µM, the TGI [2] was greater than 100 µM and the TGI [14] was greater than 100 µM. It also gave a TGI [3] greater than 100 µM, a TGI [4] greater than 100 µM and a TGI [5] greater than 100 µM. It also gave a TGI [6] greater than 100 µM, a TGI [7] greater than 100 µM and a TGI [8] greater than 100 µM. For the same compound, the TGI [15] was greater than 100 µM, the TGI [9] was greater than 100 µM and the TGI [10] was greater than 100 µM. The TGI [12] was greater than 100 µM and the TGI [13] was greater than 100 µM.
`O=C(CSCC(=O)N/N=C\c1ccc(O)c(O)c1O)N/N=C\c1ccc(O)c(O)c1O` showed a TGI [1] of 46.1 µM, a TGI [2] of 13.4 µM and a TGI [14] greater than 100 µM. For the same compound, the TGI [16] was 80.8 µM, the TGI [3] was 37.1 µM and the TGI [4] was 4.76 µM. The TGI [5] was 21.5 µM, the TGI [6] was 53.1 µM and the TGI [17] was 3.16 µM. It also gave a TGI [7] of 9.22 µM, a TGI [8] of 4.94 µM and a TGI [15] of 44.2 µM. For the same compound, the TGI [9] was 59 µM, the TGI [10] was greater than 100 µM and the TGI [11] was 21.2 µM. For the same compound, the TGI [12] was 8.18 µM and the TGI [13] was 41.8 µM.
`CSc1ccc(NC(=O)C2c3[nH]c4ccccc4c3C3CCC(C(C)(C)C)CC3C2C(=O)O)cc1` (stereo unspecified) showed a TGI [1] greater than 100 µM, a TGI [2] of 27.5 µM and a TGI [14] of 53 µM. The TGI [5] was 44.6 µM, the TGI [6] was 33.1 µM and the TGI [7] was 50.1 µM. The TGI [8] was 38.5 µM, the TGI [15] was 60.5 µM and the TGI [9] was 36.8 µM. It also gave a TGI [10] of 80.2 µM, a TGI [11] of 37.9 µM and a TGI [12] of 25.5 µM. The TGI [13] was 67.1 µM.
With `CC1(C)C(=O)C(C)(C)C1=NNC(N)=S` the TGI [1] was greater than 100 µM, the TGI [2] was greater than 100 µM and the TGI [14] was greater than 100 µM. The TGI [3] was greater than 100 µM, the TGI [4] was greater than 100 µM and the TGI [5] was greater than 100 µM. For the same compound, the TGI [6] was greater than 100 µM, the TGI [7] was greater than 100 µM and the TGI [8] was greater than 100 µM. The TGI [15] was greater than 100 µM, the TGI [9] was greater than 100 µM and the TGI [10] was greater than 100 µM. The TGI [11] was greater than 100 µM, the TGI [12] was greater than 100 µM and the TGI [13] was greater than 100 µM.
`N#Cc1ccc(Oc2ccccc2)cc1C#N` gave a TGI [1] greater than 100 µM, a TGI [2] greater than 100 µM and a TGI [14] greater than 100 µM. It also gave a TGI [3] greater than 100 µM, a TGI [4] of 38.7 µM and a TGI [5] greater than 100 µM. For the same compound, the TGI [6] was greater than 100 µM, the TGI [7] was greater than 100 µM and the TGI [8] was greater than 100 µM. The TGI [15] was greater than 100 µM, the TGI [9] was greater than 100 µM and the TGI [10] was greater than 100 µM. The TGI [11] was greater than 100 µM, the TGI [12] was 49.7 µM and the TGI [13] was greater than 100 µM.
